Common to all, as to assay type: binding
Assay [1] deals with T1, panel of 442 kinases (Homo sapiens, UniProt P37023).
T1 construct: purchased KINOMEscan
The conditions noted are these: Compound Concentration 10 µM. An excerpt:
(§1) We assessed the selectivity of members of this scaffold using the KINOMEscan methodology across a near comprehensive panel of 442 kinases [[18,27]].

The target in assay [2] is T2, panel of 442 kinases (Homo sapiens, UniProt Q06187).
T2 construct: purchased KINOMEscan
T2 sequence (Q06187 whole entry): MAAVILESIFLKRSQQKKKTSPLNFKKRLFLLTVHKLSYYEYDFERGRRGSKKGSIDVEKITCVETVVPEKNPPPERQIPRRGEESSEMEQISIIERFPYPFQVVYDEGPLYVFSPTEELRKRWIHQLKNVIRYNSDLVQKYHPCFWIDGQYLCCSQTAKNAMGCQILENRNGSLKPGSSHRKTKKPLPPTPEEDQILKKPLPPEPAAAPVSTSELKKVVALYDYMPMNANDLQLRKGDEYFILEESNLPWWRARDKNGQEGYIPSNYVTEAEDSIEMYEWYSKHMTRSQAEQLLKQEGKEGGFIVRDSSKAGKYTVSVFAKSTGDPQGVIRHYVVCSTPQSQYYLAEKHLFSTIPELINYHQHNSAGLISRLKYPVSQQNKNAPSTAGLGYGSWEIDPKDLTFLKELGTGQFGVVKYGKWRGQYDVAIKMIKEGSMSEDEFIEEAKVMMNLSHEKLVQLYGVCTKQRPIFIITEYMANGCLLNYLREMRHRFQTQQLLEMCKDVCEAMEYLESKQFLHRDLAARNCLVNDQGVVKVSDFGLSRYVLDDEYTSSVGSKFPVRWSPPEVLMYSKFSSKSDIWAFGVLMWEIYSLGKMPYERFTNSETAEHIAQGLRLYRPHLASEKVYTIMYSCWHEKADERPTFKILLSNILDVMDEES
The note with it: Compound Concentration 10 µM.
Description: as §1

The target of assay [3] is T3, panel of 442 kinases (Homo sapiens, UniProt P00533, T790M).
T3 construct: purchased KINOMEscan
T3 sequence (P00533 25-1210 T790M): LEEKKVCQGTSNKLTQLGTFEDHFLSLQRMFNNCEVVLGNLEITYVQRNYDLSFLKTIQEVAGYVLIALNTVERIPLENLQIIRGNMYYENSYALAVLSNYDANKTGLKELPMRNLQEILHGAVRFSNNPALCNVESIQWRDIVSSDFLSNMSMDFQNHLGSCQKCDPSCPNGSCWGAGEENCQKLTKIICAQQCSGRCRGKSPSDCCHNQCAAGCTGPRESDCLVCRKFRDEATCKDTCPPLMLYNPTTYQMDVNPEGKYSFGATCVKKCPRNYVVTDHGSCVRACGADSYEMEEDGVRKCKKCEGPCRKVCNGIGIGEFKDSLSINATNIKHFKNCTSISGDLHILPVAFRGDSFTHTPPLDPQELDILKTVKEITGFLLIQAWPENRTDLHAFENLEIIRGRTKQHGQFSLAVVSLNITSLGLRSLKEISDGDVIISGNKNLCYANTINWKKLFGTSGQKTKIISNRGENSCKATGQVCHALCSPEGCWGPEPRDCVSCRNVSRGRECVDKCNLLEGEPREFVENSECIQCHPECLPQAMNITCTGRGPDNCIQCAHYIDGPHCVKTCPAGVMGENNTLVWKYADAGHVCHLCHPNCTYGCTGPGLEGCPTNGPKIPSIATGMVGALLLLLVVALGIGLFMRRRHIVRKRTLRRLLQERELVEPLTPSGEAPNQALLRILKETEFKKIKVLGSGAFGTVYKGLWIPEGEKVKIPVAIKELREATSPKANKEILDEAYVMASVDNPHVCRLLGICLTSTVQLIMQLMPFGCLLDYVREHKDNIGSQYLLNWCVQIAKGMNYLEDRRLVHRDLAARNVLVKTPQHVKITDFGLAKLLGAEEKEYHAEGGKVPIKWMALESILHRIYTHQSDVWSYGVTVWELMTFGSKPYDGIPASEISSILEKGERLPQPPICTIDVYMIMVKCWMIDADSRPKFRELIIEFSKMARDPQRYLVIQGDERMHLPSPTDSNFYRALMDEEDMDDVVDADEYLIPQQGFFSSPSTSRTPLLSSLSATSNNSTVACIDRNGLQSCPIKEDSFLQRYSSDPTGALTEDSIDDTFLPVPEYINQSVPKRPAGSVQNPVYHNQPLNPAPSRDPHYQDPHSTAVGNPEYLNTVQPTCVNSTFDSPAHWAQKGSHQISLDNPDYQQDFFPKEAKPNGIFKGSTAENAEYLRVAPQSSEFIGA
The conditions noted are these: Compound Concentration 10 µM.
Description: as §1

Assay [4] has as its target T4, panel of 442 kinases (Homo sapiens, UniProt P0C1S8).
T4 construct: purchased KINOMEscan
The note with it: kinase WEE2; compound concentration 10 µM.
Description: as §1

T4 sequence (P0C1S8 whole entry): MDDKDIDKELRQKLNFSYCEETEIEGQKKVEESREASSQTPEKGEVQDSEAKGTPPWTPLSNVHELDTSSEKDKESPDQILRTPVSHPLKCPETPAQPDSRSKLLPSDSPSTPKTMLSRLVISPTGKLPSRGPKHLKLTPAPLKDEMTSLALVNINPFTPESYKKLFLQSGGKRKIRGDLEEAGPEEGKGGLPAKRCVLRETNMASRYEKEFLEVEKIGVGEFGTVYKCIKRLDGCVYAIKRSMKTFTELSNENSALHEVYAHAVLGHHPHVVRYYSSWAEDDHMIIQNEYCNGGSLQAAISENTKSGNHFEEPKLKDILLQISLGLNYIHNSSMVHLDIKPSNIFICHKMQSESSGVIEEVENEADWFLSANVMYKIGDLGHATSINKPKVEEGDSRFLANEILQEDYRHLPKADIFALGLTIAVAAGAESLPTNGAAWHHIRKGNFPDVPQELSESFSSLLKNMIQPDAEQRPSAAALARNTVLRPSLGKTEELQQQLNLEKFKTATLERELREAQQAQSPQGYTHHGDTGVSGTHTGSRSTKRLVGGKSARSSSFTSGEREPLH
T1 sequence (P37023 22-503): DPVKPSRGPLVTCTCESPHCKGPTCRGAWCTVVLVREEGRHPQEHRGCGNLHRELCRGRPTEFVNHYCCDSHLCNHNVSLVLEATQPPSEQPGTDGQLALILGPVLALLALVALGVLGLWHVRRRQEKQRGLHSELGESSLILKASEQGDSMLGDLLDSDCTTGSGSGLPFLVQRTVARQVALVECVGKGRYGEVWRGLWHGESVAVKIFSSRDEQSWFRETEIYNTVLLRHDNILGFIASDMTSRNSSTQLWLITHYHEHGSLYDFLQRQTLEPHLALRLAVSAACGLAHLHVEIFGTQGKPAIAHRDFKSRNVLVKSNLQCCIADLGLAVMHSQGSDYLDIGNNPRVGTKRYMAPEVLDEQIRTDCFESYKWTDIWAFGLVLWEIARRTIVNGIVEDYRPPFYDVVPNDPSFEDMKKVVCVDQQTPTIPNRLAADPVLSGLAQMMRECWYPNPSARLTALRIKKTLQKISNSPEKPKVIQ

In the case of `CCOc1cc(C(=O)N2CCC(N3CCN(C)CC3)CC2)ccc1Nc1ncc2c(n1)N(C1CCCC1)c1ccccc1C(=O)N2C` [Compound 26], the “KINOMEscan: ACVRL1” value at panel of 442 kinases [1] came out at 100. Besides, the “KINOMEscan: BTK” value on panel of 442 kinases [2] is on record as 100. The “KINOMEscan: EGFR(T790M)” value at panel of 442 kinases [3] came to 100. Further, the “% Ctrl, WEE2” value at panel of 442 kinases [4] worked out at 100 % Ctrl.

As for `COc1cc(C(=O)N2CCC(N3CCN(C)CC3)CC2)ccc1Nc1ncc2c(n1)N1CCc3cccc(c31)C(=O)N2C` [Compound 24], the “KINOMEscan: EGFR(T790M)” value at panel of 442 kinases [3] was 76. The “% Ctrl, WEE2” value on panel of 442 kinases [4] amounted to 100 % Ctrl.

Take `COc1cc(C(=O)N2CCC(N3CCN(C)CC3)CC2)ccc1Nc1ncc2c(n1)N(C)c1ccccc1C(=O)N2C` [15 (LRRK2-IN-1)]: the “KINOMEscan: ACVRL1” value on panel of 442 kinases [1] is given as 100. The “KINOMEscan: BTK” value at panel of 442 kinases [2] came to 100. Further, on panel of 442 kinases [3], the “KINOMEscan: EGFR(T790M)” value is given as 88. In addition, the “% Ctrl, WEE2” value on panel of 442 kinases [4] came out at 100 % Ctrl.

As for `COc1cc(C(=O)N2CCC(N3CCN(C)CC3)CC2)ccc1Nc1ncc2c(n1)N(C1CCCC1)c1ccccc1C(=O)N2C` [Compound 25, 11-cyclopentyl-2-((2-methoxy-4-(4-(4-methylpiperazin-1-yl)piperidine-1-carbonyl)phenyl)amino)-5-methyl-5H-benzo[e]pyrimido[5,4-b][1,4]diazepin-6(11H)-one], the “KINOMEscan: ACVRL1” value on panel of 442 kinases [1] came out at 100. Besides, the “KINOMEscan: BTK” value on panel of 442 kinases [2] is given as 98. At panel of 442 kinases [3], the “KINOMEscan: EGFR(T790M)” value is listed as 89. The “% Ctrl, WEE2” value at panel of 442 kinases [4] is reported as 100 % Ctrl.

(Values after publication PMC3914206.)
